# Assay results published in publication PMC7984888, “Inhibitory Activity of Pyrroloisoxazolidine Derivatives against Chlamydia trachomatis” (BioMed Research International, 2021).
# Like-named read-outs stand apart in the source and are kept apart here.
# Tests used:
# C. trachomatis L2 [1] = assay: Period incubation assay; format: cell-based, Chlamydia trachomatis; details: progeny EBs at 36 hpi; for Inhibitory effect, treated at 0-2 h: 32 μM, 0-2 h period; for Production of infectious progenies, compound added during the 12-24 h period: 2, 8 or 32 μM
# Procedure: HeLa cells seeded in 48-well plate were infected with C. trachomatis L2 at an MOI of 0.2 and treated with 2, 8, or 32 μM of compound during 0-2, 2-12, 12-24, and 24-36 h period. At 36 hpi, the production of infectious progeny EBs and percent inhibition data were determined as above.  Figure 7 Period incubation assay. (a) HeLa cells infected with C. trachomatis L2 were treated with 2, 8, or 32 μM individual compound for indicated times. The production of progeny EBs was determined at 36 hpi. (b–d) Percent inhibition of progeny EBs was calculated based on data in compound-treated samples relative to DMSO-treated control. Data are presented as mean ± SD of three independent assays.
# Uninfected HeLa cells = assay: Host cell cytotoxicity (morphology, nuclear integrity, cell count); format: cell-based; details: 48 h, Evans blue, DAPI, cell counting
# Procedure: Uninfected HeLa cells were cultured with indicated concentration of individual compound or 0.5% DMSO. Forty-eight hours later, cells were fixed with methanol and stained with Evans blue for morphology or DAPI for nuclear integrity. Otherwise, at 48 h later, cells were detached and enumerated by a hemacytometer.  Figure 2 Lack of cytotoxicity of compounds 1 and 2 on HeLa cells. Uninfected HeLa cells were cultured with medium containing various concentrations of individual compound or 0.5% DMSO for 48 h. (a) The cellular morphology was stained with Evans blue, and cell nucleus was stained with DAPI. (b) The cells were enumerated by a hemacytometer. Data are presented as mean ± SD of three independent assays.
# [2] = system: Chlamydia trachomatis L2 EBs; assay: Elementary body pretreatment assay; format: cell-based; details: for EB entry efficiency after EB pretreatment for 4 h: 32 μM, 4°C; for EB counts that enter into host cells after EB pretreatment for 1 h: 2, 8 and 32 μM, 37°C and 4°C
# Procedure: Chlamydia trachomatis L2 EBs suspended in SPG at 4 x 10^5 IFU/mL were exposed to 2, 8, or 32 μM individual compound at 37°C or 4°C for indicated times. EBs then were washed twice to eliminate the residual chemical and were immediately loaded onto HeLa cell monolayers at an MOI of 0.2. The infective EB count was measured by quantifying inclusion numbers at 36 hpi using immunofluorescence staining as above.  Figure 4 Compounds 1 and 2 weakly attenuated the EB infectivity. Chlamydia trachomatis L2 EBs were incubated with 2, 8, or 32 μM compound 1 (a) or 2 (b) at 37°C or 4°C for 1 or 4 h. After washes, EBs were used to infect HeLa cell. At 36 hpi, the inclusion was counted as described in “Materials and Methods.” Data are presented as mean ± SD of three independent assays. ∗∗p < 0.01, compared 4°C with 37°C by Student's t-tests. ^#p < 0.05, compared with each DMSO control sample by Student's t-tests.
# [3] = system: Chlamydia trachomatis serovar L2 (strain 434/Bu); assay: Infectious progeny inhibition assay, C. trachomatis L2; format: cell-based
# Procedure: Chlamydia trachomatis serovars D (strain UW-3/CX) and L2 (strain 434/Bu) were purchased from ATCC. HeLa cells purchased from ATCC were routinely cultured in DMEM supplemented with 10% heat-inactivated FBS (Sigma-Aldrich) and 10 μg/mL gentamicin at 37°C in a humidified atmosphere of 5% and were used for chlamydial propagation and cell culture experiments. EBs were purified by Renografin density gradient and stored in sucrose-phosphate-glutamate (SPG) buffer at -80°C [20]. A mouse polyclonal anti-MoPn (C. muridarum strain Nigg II) antibody, which was produced in our laboratory and cross-reacting with C. trachomatis D and L2, was used as a primary antibody for both stains detection.
# Cell monolayers seeded onto coverslips in a 24-well plate were infected with C. trachomatis at a multiplicity of infection (MOI) of 0.2 inclusion-forming units (IFU) per cell. Unless noted, individual compound was added into culture medium at indicated concentrations simultaneously at the time of inoculation. 0.5% DMSO was used as negative control and 11.25 μM tetracycline (Sigma-Aldrich) as positive control. For C. trachomatis D, an additional centrifugation (900 × g at room temperature for 1 h) was applied to facilitate the infection. At 36 hours postinfection (hpi), infected cells were fixed by precooled methanol and then subjected to sequential staining processed with a primary antibody and a FITC-conjugated secondary antibody. Evans blue was used as cytoplasm counterstain. Images were shot by an Olympus IX51 fluorescence microscope.
# Cells monolayers seeded in 48-well plate were infected and treated with chemicals as above. After incubation for 36 hours, infected cells were washed twice, scraped off, and lysed by sonication to release the infectious progeny EBs. Then the lysates were used to reinfect fresh cell monolayers grown in 96-well plate following 1 : 10 serial dilution. The inclusion counts were obtained by immunofluorescence staining as above to calculate the number of infectious progeny EBs in each sample. Percent inhibition was calculated based on EB counts in compound-treated samples relative to DMSO-treated negative control.
# Data from the three independent experiments were presented as mean ± standard deviations (SD) and were subjected to pairwise Student's t-tests. p < 0.05 and p < 0.01 are considered statistically significant and statistically highly significant, respectively. The IC50 values, defined as the concentration of compound at which the generation of infectious progeny EBs was reduced by 50% relative to negative control, were calculated by nonlinear regression from percent inhibition data using the GraphPad Prism 5 software, and presented as mean (95% confidence interval).
# C. trachomatis L2 [4] = assay: Host cell pretreatment assay; format: cell-based, Chlamydia trachomatis; details: 2, 8 and 32 μM, 37°C, 1 h (also 4 h) prior to infection
# Procedure: Cells seeded in 48-well plate were incubated with 2, 8, or 32 μM individual compound at 37°C for indicated times. After twice washing with SPG to remove residual compound, cells were infected with EBs at an MOI of 0.2. At 36 hpi, the inclusion count in each well was determined by immunofluorescence staining as above.
# Chlamydia trachomatis has a unique EB/RB biphasic life cycle, which offers the infection steps and the intracellular proliferation period for therapeutic intervention. To explore whether the compounds affected the chlamydial infection steps, the HeLa cells or EBs were pretreated with compound prior to infection, and then the influence on EB entry efficiency was analyzed by counting inclusion numbers. Due to the relative easier for culture and shorter developmental cycle, C. trachomatis L2 is commonly represented as a laboratory model for C. trachomatis in cell culture research and is picked for our subsequent mechanism study.
# Figure 3 Host cells were not involved in the compounds' antichlamydial activity. HeLa cells were incubated with 2, 8, or 32 μM compound 1 (a) or 2 (b) at 37°C for 1 or 4 h. After washes, cells were infected with EBs. At 36 hpi, the inclusion was counted as described in “Materials and Methods.” Data are presented as mean ± SD of three independent assays.
# [5] = Chlamydia trachomatis, HeLa, generation of infectious progeny EBs in HeLa cells, MOI 0.2, 36 hpi, 1 to 32 μM, read-out: IC50 (μM) Mean (95% confidence interval) Ct L2
# [6] = Chlamydia trachomatis, text statements over both strains (L2 and D), infectious progeny EBs, read-out: IC50 values, statement covering both C. trachomatis L2 and D
# [7] = generation of infectious progeny EBs in HeLa cells, MOI 0.2, 36 hpi, 1 to 32 μM, read-out: IC50 (μM) Mean (95% confidence interval) Ct L2
smiles,measurement,setting,value
c1ccc(C2C3CC(c4ccccc4)N(c4ccccc4)C3ON2c2ccccc2)cc1 (stereo not shown) [Compound 1],"Inhibitory effect, treated at 0-2 h",C. trachomatis L2 [1],weak inhibitory effect
same,"Production of infectious progenies, compound added during the 12-24 h period",C. trachomatis L2 [1],significantly inhibited
same,"Intracellular chlamydial growth, 2-12 h period treatment",C. trachomatis L2 [1],partially prevented
same,"Infectious progeny EBs, 24-36 h period incubation",C. trachomatis L2 [1],partially inhibited
same,"Cytotoxic activity on host cells (morphology, nuclear integrity, cell proliferation)",Uninfected HeLa cells,No substantial cytotoxic activity
same,EB entry efficiency after EB pretreatment for 4 h,[2],slightly dropped
same,EB counts that enter into host cells after EB pretreatment for 1 h,[2],did not change
same,IC50,[3]; [5],< 10 µM
same,IC50,[3]; [6],7.25 to 9.73 µM
same,IC50,[3]; [7],7.25 µM
same,Formation of chlamydial inclusions after pretreatment of HeLa cells,C. trachomatis L2 [4],did not reduce
Clc1ccc(N2C(c3ccccc3)CC3C(c4ccccc4)N(c4ccccc4)OC32)cc1 (stereo not shown) [Compound 2],"Inhibitory effect, treated at 0-2 h",C. trachomatis L2 [1],weak inhibitory effect
same,"Production of infectious progenies, compound added during the 12-24 h period",C. trachomatis L2 [1],significantly inhibited
same,"Intracellular chlamydial growth, 2-12 h period treatment",C. trachomatis L2 [1],partially prevented
same,"Infectious progeny EBs, 24-36 h period incubation",C. trachomatis L2 [1],partially inhibited
same,"Cytotoxic activity on host cells (morphology, nuclear integrity, cell proliferation)",Uninfected HeLa cells,No substantial cytotoxic activity
same,EB entry efficiency after EB pretreatment for 4 h,[2],slightly dropped
same,EB counts that enter into host cells after EB pretreatment for 1 h,[2],did not change
same,IC50,[3]; [5],< 10 µM
same,IC50,[3]; [6],7.25 to 9.73 µM
same,IC50,[3]; [7],8.69 µM
same,Formation of chlamydial inclusions after pretreatment of HeLa cells,C. trachomatis L2 [4],did not reduce
